Test results: the supplement of paper PMC11061612

Legend:
[1] = test system: SIMA (Neuroblastoma); experiment: Bliss excess, mean over the matrix (fraction); higher = more synergy
How it was run: (§1)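 Cell lines grown in DMEM/F12 or RPMI with 10% FBS were plated in 1536-well plates and held 24 hours at 37°C, 5% CO2 before 72 hours of exposure to two-drug dose matrices, with DMSO typically at 0.2%. CellTiter-Glo 2.0 luminescence gave viability, which was converted to inhibition. Vehicle wells were set to 0 and blank wells to 1. Combination Emax is the second-highest inhibition in the matrix, and Bliss excess is the observed combination effect minus the expected EA + EB − EA·EB, where EA and EB are the single-agent effects.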

[2] = test system: RKO (Colorectal Carcinoma); experiment: combination Emax (second highest fraction inhibited in the dose matrix, 72 h); higher = more inhibition; extreme values may be limits of the assay
How it was run: as §1

[3] = test system: SW626 (Colorectal Carcinoma); experiment: as above
How it was run: as §1

[4] = test system: CAL-51 (Breast Carcinoma); experiment: as above
How it was run: as §1

[5] = test system: NCI-H28 (Mesothelioma); experiment: as above
How it was run: as §1

[6] = test system: MDA-MB-468 (Breast Carcinoma); experiment: as above
How it was run: as §1

[7] = test system: SIMA (Neuroblastoma); experiment: as above
How it was run: as §1

[8] = test system: CAL-54 (Kidney Carcinoma); experiment: as above
How it was run: as §1

[9] = test system: HMV-II (Melanoma); experiment: as above
How it was run: as §1

[10] = test system: OC-314 (Ovarian Carcinoma); experiment: as above
How it was run: as §1

[11] = test system: RH-18 (Rhabdomyosarcoma); experiment: Bliss excess, mean over the matrix (fraction); higher = more synergy
How it was run: as §1

[12] = test system: RH-18 (Rhabdomyosarcoma); experiment: combination Emax (second highest fraction inhibited in the dose matrix, 72 h); higher = more inhibition; extreme values may be limits of the assay
How it was run: as §1
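Throughout, for Bliss excess, mean over the matrix: after 72 h of two-drug dosing.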

SMILES | Bliss excess [1] | combination Emax [2] | combination Emax [3] | combination Emax [4] | combination Emax [5] | combination Emax [6] | combination Emax [7] | combination Emax [8] | combination Emax [9] | combination Emax [10] | Bliss excess [11] | combination Emax [12]
Cc1c2c(nn1C)CSCc1cc(n(C)n1)CSc1cc(c3ccccc3c1)OCCCc1c(C(=O)O)n(C)c3c-2c(Cl)ccc13 [AZD5991] + C=CCn1c(=O)c2cnc(Nc3ccc(N4CCN(C)CC4)cc3)nc2n1-c1cccc(C(C)(C)O)n1 [AZD1775] (first compound max 1 µM, partner max 1 µM) | -0.0713 | 0.69 | 0.559 | 0.915 | 0.416 | 0.615 | 0.973 | 0.702 | 0.487 | 0.554 |  | 
Cc1c2c(nn1C)CSCc1cc(n(C)n1)CSc1cc(c3ccccc3c1)OCCCc1c(C(=O)O)n(C)c3c-2c(Cl)ccc13 [AZD5991] + CC1(C)CCC(CN2CCN(c3ccc(C(=O)NS(=O)(=O)c4ccc(NCC5CCOCC5)c([N+](=O)[O-])c4)c(Oc4cnc5[nH]ccc5c4)c3)CC2)=C(c2ccc(Cl)cc2)C1 [Venetoclax] (first compound max 1 µM, 7x7, partner max 1 µM) | 0.107 | 0.225 | 0.205 | 0.521 | 0.185 | 0.662 | 0.46 | 0.163 | 0.151 | 0.147 |  | 
Cc1c2c(nn1C)CSCc1cc(n(C)n1)CSc1cc(c3ccccc3c1)OCCCc1c(C(=O)O)n(C)c3c-2c(Cl)ccc13 [AZD5991] + CCN(CCO)CCCOc1ccc2c(Nc3cc(CC(=O)Nc4cccc(F)c4)[nH]n3)ncnc2c1 [AZD2811] (first compound max 1 µM, 7x7, partner max 1 µM) | -0.0271 | 0.349 | 0.325 | 0.66 | 0.342 | 0.738 | 0.768 | 0.234 | 0.4 | 0.449 |  | 
Cc1c2c(nn1C)CSCc1cc(n(C)n1)CSc1cc(c3ccccc3c1)OCCCc1c(C(=O)O)n(C)c3c-2c(Cl)ccc13 [AZD5991] + CN(C)CCCOc1ccc(-c2ccc3ncc4c(c3c2)n(C2CCOCC2)c(=O)n4C)cn1 [AZD0156] (first compound max 1 µM, 7x7, partner max 1 µM) | 0.0197 | 0.225 | 0.223 | 0.476 | 0.194 | 0.452 | 0.398 | 0.263 | 0.256 | 0.239 |  | 
Cc1c2c(nn1C)CSCc1cc(n(C)n1)CSc1cc(c3ccccc3c1)OCCCc1c(C(=O)O)n(C)c3c-2c(Cl)ccc13 [AZD5991] + C[C@@H]1COCCN1C2=NC(=NC(=C2)C3(CC3)[S@](=N)(=O)C)C4=C5C=CNC5=NC=C4 [AZD6738] (first compound max 1 µM, 7x7, partner max 10 µM) | 0.024 | 0.85 | 0.632 | 0.899 | 0.533 | 0.768 | 0.98 | 0.706 | 0.424 | 0.832 |  | 
Cc1c2c(nn1C)CSCc1cc(n(C)n1)CSc1cc(c3ccccc3c1)OCCCc1c(C(=O)O)n(C)c3c-2c(Cl)ccc13 [AZD5991] + C[C@@H](Nc1cc(F)cc(F)c1)c1cc(C(=O)N(C)C)cc2c(=O)cc(N3CCOCC3)oc12 [AZD8186] (first compound max 1 µM, 7x7, partner max 3 µM) | -0.0084 | 0.277 | 0.223 | 0.336 | 0.298 | 0.605 | 0.218 | 0.602 | 0.192 | 0.297 |  | 
Cc1c2c(nn1C)CSCc1cc(n(C)n1)CSc1cc(c3ccccc3c1)OCCCc1c(C(=O)O)n(C)c3c-2c(Cl)ccc13 [AZD5991] + Cn1cnc2c(F)c(Nc3ccc(Br)cc3Cl)c(C(=O)NOCCO)cc21 [Selumetinib] (first compound max 1 µM, 7x7, partner max 3 µM) | 0.0879 | 0.406 | 0.528 | 0.406 | 0.316 | 0.595 | 0.516 | 0.28 | 0.829 | 0.245 |  | 
COc1cccc(OCCCN)c1-c1cc(Nc2cnc(C#N)cn2)n[nH]1 [Prexasertib] + CCc1c2c(nc3ccc(O)cc13)-c1cc3c(c(=O)n1C2)COC(=O)[C@]3(O)CC [SN-38] (first compound max 1 µM, 7x7, partner max 0.3 µM) |  | 0.909 | 0.819 | 0.901 | 0.616 | 0.817 |  | 0.855 | 0.669 | 1 | -0.0464 | 0.689
CCc1c2c(nc3ccc(O)cc13)-c1cc3c(c(=O)n1C2)COC(=O)[C@]3(O)CC [SN-38] + O=C(c1cc(Cc2n[nH]c(=O)c3ccccc23)ccc1F)N1CCN(C(=O)C2CC2)CC1 [Olaparib] (first compound max 0.3 µM, 7x7, partner max 10 µM) |  | 0.86 | 0.559 | 0.801 | 0.429 | 0.773 |  | 0.788 | 0.641 | 1 | 0.0899 | 0.76
